Test results taken from patent US12630507B2, “Pyrrolidine amide derivative salt and use thereof” (SUNSHINE LAKE PHARMA CO., LTD., priority 2020, dated 2026).
Blank lines part the entries; values can stand above or below the compound they belong to.

Columns and labels:
[1] = Pharmacokinetics test, oral capsules, plasma concentration by LC-MS/MS; format: in vivo; settings: male Beagle dogs, oral capsule, 5 mg/kg
Method: The test samples (that is, the salt of the present invention or its crystal form, or the compound represented by formula (I) of the present invention) were filled into capsules for oral administration.
Three […] male Beagle dogs were taken orally administered capsules containing the test sample at a dose of 5 mg/kg, and blood was collected at time points of 0.25, 0.5, 1.0, 2.0, 5.0, 7.0 and 24 h. Standard curve was plotted based on concentrations of the samples in a suitable range, the concentration of the test sample in the plasma sample was measured and quantified by AB SCIEX API5500 LC-MS/MS at MRM mode. Pharmacokinetic parameters were calculated according to drug concentration-time curve using a noncompartmental method by WinNonLin 6.3 software.

[2] = Solubility test in water by HPLC; format: physicochemical; settings: for Concentration of compound represented by formula (I) in saturated aqueous solution: ultrapure water, 37 °C, shaking for 24 h, filtrate by HPLC
Method: The solubility of the present invention was determined using an Agilent 1200 High Performance Liquid Chromatograph DAD/VWD detector with an Agilent XDB-C18 model (4.6×50 mm, 5 μm). Detection wavelength was 266 nm, flow rate was 1.0 mL/min, the column temperature was 35° C., mobile phase A: acetonitrile/0.01 M ammonium acetate=[…] (V/V), analysis methods: acetonitrile/mobile phase A=70/30 (V/V), running time was 10 minutes.
The test samples were placed in organic ultrapure water at 37 O(C to prepare a supersaturated solution. After shaking for 24 h, the mixture was filtered with an aqueous filter membrane to obtain the filtrate, and the solubility of the target sample in water was detected by HPLC. Results are as shown in Table 5.

MAO-B = target: T1, MAO-B (Homo sapiens, UniProt P27338); settings: as disclosed in WO 2019170115 A1; cited from earlier work
T1 sequence (P27338 1-520): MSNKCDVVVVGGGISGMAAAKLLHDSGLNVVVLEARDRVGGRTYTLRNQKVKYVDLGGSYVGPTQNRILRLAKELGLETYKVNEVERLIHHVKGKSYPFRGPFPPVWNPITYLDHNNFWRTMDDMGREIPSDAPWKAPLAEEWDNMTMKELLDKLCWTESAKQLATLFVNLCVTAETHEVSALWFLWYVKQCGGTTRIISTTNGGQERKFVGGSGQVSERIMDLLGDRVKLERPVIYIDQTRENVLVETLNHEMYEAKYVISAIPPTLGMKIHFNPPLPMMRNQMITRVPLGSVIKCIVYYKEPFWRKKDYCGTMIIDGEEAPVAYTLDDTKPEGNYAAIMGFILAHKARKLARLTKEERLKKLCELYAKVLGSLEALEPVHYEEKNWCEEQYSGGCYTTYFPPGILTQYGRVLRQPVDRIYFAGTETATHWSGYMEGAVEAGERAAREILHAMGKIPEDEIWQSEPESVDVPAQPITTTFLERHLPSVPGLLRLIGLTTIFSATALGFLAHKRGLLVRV

[3] = Stability test (high temperature, high humidity, light); format: physicochemical; settings: for Outward (appearance): cell wraps r9-r11: Off-white solid
Method: • (1) High temperature test: a batch of the test samples were taken into the flat weighing bottles, spread into a thin layer with a thickness of ≤5 mm. The above weighing bottles were stored at 40° C.±2° C./75%±5% RH and 60° C.±2° C./75% f 5% RH for 30 days in an incubator. On the 5th, 10th, and 30th days, samples were taken for detection according to the key stability inspection items: the color change of the sample was observed, the purity of the sample was determined by HPLC. • (2) High humidity test: a batch of the test samples were taken into the flat weighing bottles, spread into a thin layer with a thickness of ≤5 mm, and stored for 30 days at 25° C., RH 75%±5% or RH 90%±5%. On the 5th, 10th, and 30th days, samples were taken for detection according to the key stability inspection items: the color change of the sample was observed, the purity of the sample was determined by HPLC. • (3) Light test: a batch of the test samples were taken into the flat weighing bottles, spread into a thin layer of ≤5 mm thick, and placed in a light box (with an ultraviolet lamp) with an open mouth. The test samples were stored under the condition of illuminance of 4500±500 lx and ultraviolet light ≥0.7 w·h/m^2 for 30 days. On the 5th, 10th, and 30th days, samples were taken for detection according to the key stability inspection items: the color change of the sample was observed, the purity of the sample was determined by HPLC.

[4] = Hygroscopicity test (weight gain, 25° C., saturated ammonium chloride desiccator, 24 hours); format: physicochemical
Method: • 1) A dry stoppered glass weighing bottle (50 mm in outer diameter, 15 mm in height) was placed in a constant temperature desiccator (the lower part was placed in a saturated ammonium chloride solution) at 25° C.±1° C. the day before, and accurately weighed (m1). • 2) An appropriate amount of the test sample was taken and spread in the above weighing bottle. The thickness of the test sample was generally about 1 mm, and it was precisely weighed (m2). • 3) The weighing bottle was opened and placed together with the bottle cap under the above constant temperature and humidity conditions for 24 hours. • 4) The weighing bottle was closed with the bottle cap, and accurately weighed (m3).

[5] = High humidity (25° C., RH 75% ± 5%), 5 days
[6] = High humidity (25° C., RH 75% ± 5%), 10 days
[7] = High humidity (25° C., RH 75% ± 5%), 30 days
[8] = High humidity (25° C., RH 90% ± 5%), 5 days
[9] = High humidity (25° C., RH 90% ± 5%), 10 days
[10] = High humidity (25° C., RH 90% ± 5%), 30 days
[11] = High temperature (40° C., RH 75% ± 5%), 5 days
[12] = High temperature (40° C., RH 75% ± 5%), 10 days
[13] = High temperature (40° C., RH 75% ± 5%), 30 days
[14] = High temperature (60° C., RH 75% ± 5%), 5 days
[15] = High temperature (60° C., RH 75% ± 5%), 10 days
[16] = High temperature (60° C., RH 75% ± 5%), 30 days
[17] = Light (4500±500 lx, ultraviolet), 5 days
[18] = Light (4500±500 lx, ultraviolet), 10 days
[19] = Light (4500±500 lx, ultraviolet), 30 days
[20] = 25° C.±1° C., saturated ammonium chloride solution, 24 hours

- AUClast [1]: 548 ng·h/mL
- Cmax [1]: 0.256 µg/mL
- Tmax [1]: 0.8 h
- Water solubility (in words) [2]: poor water solubility
- Concentration of compound represented by formula (I) in saturated aqueous solution [2]: 11.40 µg/mL
Compound: NC(=O)[C@@H]1C[C@H](F)CN1Cc1ccc(OCc2cccc(F)c2)cc1 [Compound represented by formula (I), (2S,4S)-4-fluoro-1-(4-(3-fluorobenzyloxy)benzyl)pyrrolidine-2-carboxamide]
- Inhibitory effect on the activity of MAO-B (MAO-B): good inhibitory effect

- AUClast [1]: 939 ng·h/mL
- Cmax [1]: 0.415 µg/mL
- Tmax [1]: 1 h
- Purity ([3]; 0 day): 99.74%
- Outward (appearance) ([3]; 0 day): Off-
- Purity [3, 5]: 99.80%
- Outward (appearance) [3, 5]: Off-
- Purity [3, 6]: 99.69%
- Outward (appearance) [3, 6]: Off-
- Purity [3, 7]: 99.72%
- Outward (appearance) [3, 7]: Off-
- Purity [3, 8]: 99.80%
- Outward (appearance) [3, 8]: Off-
- Purity [3, 9]: 99.69%
- Outward (appearance) [3, 9]: Off-
- Purity [3, 10]: 99.73%
- Outward (appearance) [3, 10]: Off-
- Purity [3, 11]: 99.74%
- Outward (appearance) [3, 11]: Off-
- Purity [3, 12]: 99.70%
- Outward (appearance) [3, 12]: Off-
- Purity [3, 13]: 99.68%
- Outward (appearance) [3, 13]: Off-
- Purity [3, 14]: 99.72%
- Outward (appearance) [3, 14]: Off-
- Purity [3, 15]: 99.64%
- Outward (appearance) [3, 15]: Off-
- Purity [3, 16]: 99.68%
- Outward (appearance) [3, 16]: Off-
- Purity [3, 17]: 99.70%
- Outward (appearance) [3, 17]: Off-
- Purity [3, 18]: 99.64%
- Outward (appearance) [3, 18]: Off-
- Purity [3, 19]: 99.64%
- Outward (appearance) [3, 19]: Off-
- Change of appearance and purity ([3]; conditions of high temperature, high humidity and light, up to 30 days): no obvious change
- Hygroscopicity [4]: no or almost no hygroscopicity
- Conclusion (hygroscopicity feature) [4, 20]: No or almost none
- Hygroscopicity gain [4, 20]: 0.12%
- Concentration of compound represented by formula (I) in saturated aqueous solution [2]: 21161.79 µg/mL
Compound: NC(=O)[C@@H]1C[C@H](F)CN1Cc1ccc(OCc2cccc(F)c2)cc1 [Example 2, (2S,4S)-4-fluoro-1-(4-(3-fluorobenzyloxy)benzyl)pyrrolidine-2-carboxamide]

- AUClast [1]: 378 ng·h/mL
- Cmax [1]: 0.143 µg/mL
- Tmax [1]: 0.7 h
- Concentration of compound represented by formula (I) in saturated aqueous solution [2]: 4719.01 µg/mL
Compound: NC(=O)[C@@H]1C[C@H](F)CN1Cc1ccc(OCc2cccc(F)c2)cc1 [Example 8, (2S,4S)-4-fluoro-1-(4-(3-fluorobenzyloxy)benzyl)pyrrolidine-2-carboxamide]

- AUClast [1]: 450 ng·h/mL
- Cmax [1]: 0.151 µg/mL
- Tmax [1]: 3.4 h
- Concentration of compound represented by formula (I) in saturated aqueous solution [2]: 575.35 µg/mL
Compound: NC(=O)[C@@H]1C[C@H](F)CN1Cc1ccc(OCc2cccc(F)c2)cc1 [Example 9, (2S,4S)-4-fluoro-1-(4-(3-fluorobenzyloxy)benzyl)pyrrolidine-2-carboxamide]

- AUClast [1]: 470 ng·h/mL
- Cmax [1]: 0.162 µg/mL
- Tmax [1]: 2.2 h
- Concentration of compound represented by formula (I) in saturated aqueous solution [2]: 1571.18 µg/mL
Compound: NC(=O)[C@@H]1C[C@H](F)CN1Cc1ccc(OCc2cccc(F)c2)cc1 [Example 10, (2S,4S)-4-fluoro-1-(4-(3-fluorobenzyloxy)benzyl)pyrrolidine-2-carboxamide]
